Drawing on patent US20050154042A1, “N-alkyl pyrroles as HMG-CoA reductase inhibitors” (priority 2003, published 2005), this text covers melting point for 18 compounds.

Structures can show the parent of a compound that is named as a salt.

What is called melting point is the temperature of the solid-liquid transition. Take `CC(C)n1c(CC[C@@H]2C[C@@H](O)CC(=O)O2)c(-c2ccc(F)cc2)c(-c2ccccc2)c1C(=O)Nc1ccc(C(=O)O)cn1` [Example 124, (2R,4R)-6-({4-(4-Fluoro-phenyl)-5-[2-(4-hydroxy-6-oxo-tetrahydro-pyran-2-yl)-ethyl]-1-isopropyl-3-phenyl-1H-pyrrole-2-carbonyl}-amino)-nicotinic Acid]: the melting point is 172 to 174 °C (dec.). On to `CC(C)n1c(C=C[C@H](O)C[C@@H](O)CC(=O)[O-])c(-c2ccc(F)cc2)c(-c2ccc(F)cc2)c1C(=O)Nc1ccc(CS(C)(=O)=O)cc1.[Na+]` [Example 106, (3R,5R)-7-[3,4-Bis-(4-fluoro-phenyl)-1-isopropyl-5-(4-methanesulfonylmethyl-phenyl-carbamoyl)-1H-pyrrol-2-yl]-3,5-dihydroxy-hept-6-enoic Acid, Sodium Salt], for which the melting point was 256 °C (dec.). Compound `CC(C)n1c(/C=C/[C@@H](O)C[C@@H](O)CC(=O)[O-])c(-c2ccc(F)cc2)c(-c2ccccc2)c1C(=O)NCc1ccc(C#N)cc1.[Na+]` [Example 145, (3R,5S)-7-[5-(4-Cyano-benzylcarbamoyl)-3-(4-fluoro-phenyl)-1-isopropyl-4-phenyl-1H-pyrrol-2-yl]-3,5-dihydroxy-hept-6-enoic Acid Sodium Salt] showed a melting point of 193 to 195 °C. In turn, `CC(C)n1c(CC[C@@H](O)C[C@@H](O)CC(=O)[O-])c(-c2ccc(F)cc2)c(-c2ccc(F)cc2)c1C(=O)NCc1cccc(S(=O)(=O)N(C)C)c1.[Na+]` [Example 71, (3R,5R)-7-[5-(3-dimethylsulfamoyl-benzylcarbamoyl)-3,4-bis-(4-fluoro-phenyl)-1-isopropyl-1H-pyrrol-2-yl]-3,5-dihydroxy-heptanoate Sodium Salt] gave a melting point of 172 to 175 °C. For the compound `CC(C)n1c(/C=C/[C@@H](O)C[C@@H](O)CC(=O)[O-])c(-c2ccc(F)cc2)c(-c2ccccc2)c1C(=O)Nc1cccc(S(N)(=O)=O)c1.[Na+]` [Example 126, (3R,5S)-7-[3-(4-Fluoro-phenyl)-1-isopropyl-4-phenyl-5-(3-sulfamoyl-phenylcarbamoyl)-1H-pyrrol-2-yl]-3,5-dihydroxy-hept-6-enoic Acid Sodium Salt], the melting point lay in the range of 225 to 227 °C. `CCNC(=O)c1c(-c2ccccc2)c(-c2ccc(F)cc2)c(CC[C@@H](O)C[C@@H](O)CC(=O)[O-])n1C(C)C.[Na+]` [Example 158, (3R,5R)-7-[5-Ethylcarbamoyl-3-(4-fluoro-phenyl)-1-isopropyl-4-phenyl-1H-pyrrol-2-yl]-3,5-dihydroxy-heptanoic Acid Sodium Salt] displayed a melting point of 203 to 205 °C. In the case of `CC(C)n1c(CC[C@@H](O)C[C@@H](O)CC(=O)[O-])c(-c2ccc(F)cc2)c(-c2ccccc2)c1C(=O)Nc1cccc(C#N)c1.[Na+]` [Example 142, (3R,5R)-7-[5-(3-Cyano-phenylcarbamoyl)-3-(4-fluoro-phenyl)-1-isopropyl-4-phenyl-1H-pyrrol-2-yl]-3,5-dihydroxy-heptanoic Acid Sodium Salt], the melting point lay in the range of 197 to 199 °C. Compound `CC(C)n1c(CC[C@@H](O)C[C@@H](O)CC(=O)O)c(-c2ccc(F)cc2)c(-c2ccccc2)c1C(=O)NCc1ccc(F)cc1` (as salt: sodium) [Example 9, (3R,5R)-7-[5-(4-Fluoro-benzylcarbamoyl)-3-(4-fluoro-phenyl)-1-isopropyl-4-phenyl-1H-pyrrol-2-yl]-3,5-dihydroxy-heptanoic Acid Sodium Salt] came in with a melting point of 218 to 220 °C. The compound `CC(C)n1c(CC[C@@H](O)C[C@@H](O)CC(=O)[O-])c(-c2ccc(F)cc2)c(-c2ccc(F)cc2)c1C(=O)NCc1ccc(C(=O)[O-])cc1.[Na+].[Na+]` [Example 162, (3R,5R)-4-({[5-(6-Carboxy-3,5-dihydroxy-hexyl)-3,4-bis-(4-fluoro-phenyl)-1-isopropyl-1H-pyrrole-2-carbonyl]-amino}-methyl)-benzoic Acid Disodium Salt] returned a melting point of 298 to 300 °C. `CC(C)n1c(CC[C@@H](O)C[C@@H](O)CC(=O)[O-])c(-c2ccc(F)cc2)c(-c2ccc(F)cc2)c1C(=O)Nc1cccc(Cl)c1.[Na+]` [Example 138, (3R,5R)-7-[5-(3-Chloro-phenylcarbamoyl)-3,4-bis-(4-fluoro-phenyl)-1-isopropyl-1H-pyrrol-2-yl]-3,5-dihydroxy-heptanoic Acid Sodium Salt]: the melting point was 191 to 194 °C. On to `CC(C)n1c(CC[C@@H](O)C[C@@H](O)CC(=O)[O-])c(-c2ccc(F)cc2)c(-c2ccc(F)cc2)c1C(=O)Nc1ccc(OCc2ccccc2)cc1.[Na+]` [Example 127], for which the melting point lay within 215 to 217 °C. Regarding `CCc1cccc(NC(=O)c2c(-c3ccc(F)cc3)c(-c3ccc(F)cc3)c(/C=C/[C@@H](O)C[C@@H](O)CC(=O)[O-])n2C(C)C)c1.[Na+]` [Example 141, (3R,5S)-7-[5-(3-Ethyl-phenylcarbamoyl)-3,4-bis-(4-fluoro-phenyl)-1-isopropyl-1H-pyrrol-2-yl]-3,5-dihydroxy-hept-6-enoic Acid Sodium Salt], the melting point lay within 229 to 230 °C. `CC(C)n1c(CC[C@@H](O)C[C@@H](O)CC(=O)[O-])c(-c2ccc(F)cc2)c(-c2ccccc2)c1C(=O)Nc1ccccn1.[Na+]` [Example 119, (3R,5R)-7-[3-(4-Fluoro-phenyl)-1-isopropyl-4-phenyl-5-(pyridin-2-ylcarbamoyl)-1 H-pyrrol-2-yl]-3,5-dihydroxy-heptanoic Acid Sodium Salt]: the melting point is 226 to 228 °C (dec.).

`CCc1cccc(NC(=O)c2c(-c3ccc(F)cc3)c(-c3ccc(F)cc3)c(CC[C@@H](O)C[C@@H](O)CC(=O)[O-])n2C(C)C)c1.[Na+]` [Example 140, (3R,5R)-7-[5-(3-Ethyl-phenylcarbamoyl)-3,4-bis-(4-fluoro-phenyl)-1-isopropyl-1H-pyrrol-2-yl]-3,5-dihydroxy-heptanoic Acid Sodium Salt] returned a melting point of 175 to 177 °C. Regarding `CC(C)n1c(CC[C@@H](O)C[C@@H](O)CC(=O)[O-])c(-c2ccc(F)cc2)c(-c2ccc(F)cc2)c1C(=O)Nc1ccc(C(=O)N(C)C)cc1.[Na+]` [Example 85, (3R,5R)-7-[5-(4-dimethylcarbamoyl-phenylcarbamoyl)-3,4-bis-(4-fluoro-phenyl)-1-isopropyl-1H-pyrrol-yl]-3,5-dihydroxy-heptanoate Sodium Salt], the melting point fell in the range of 220 to 223 °C. Take `CC(C)n1c(CC[C@@H](O)C[C@@H](O)CC(=O)O)c(-c2ccc(F)cc2)c(-c2ccc(F)cc2)c1C(=O)Nc1ccc(CC(N)=O)cc1` (as salt: sodium) [Example 13]: the melting point was 248 to 250 °C. `CC(C)n1c(CC[C@@H](O)C[C@@H](O)CC(=O)[O-])c(-c2ccc(F)cc2)c(-c2ccccc2)c1C(=O)Nc1cccc(C(=O)N(C)C)c1.[Na+]` [Example 108, (3R,5R)-7-[5-(3-Dimethylcarbamoyl-phenylcarbamoyl)-3-(4-fluoro-phenyl)-1-isopropyl-4-phenyl-1H-pyrrol-2-yl]-3,5-dihydroxy-heptanoic Acid, Sodium Salt] returned a melting point of 156 to 205 °C. With `CC(C)n1c(CC[C@@H](O)C[C@@H](O)CC(=O)O)c(-c2ccc(F)cc2)c(-c2ccccc2)c1C(=O)NCc1nc2ccccc2[nH]1` (as salt: sodium) [Example 92], the melting point is 234 to 236 °C (dec.).
